# Reference: patent publication US11021493B2, “1,4-thiazine dioxide and 1,2,4-thiadiazine dioxide derivatives as beta-secretase inhibitors and methods of use” (AMGEN INC., priority 2016, dated 2021)
# Assays:
# human recombinant BACE2 = human recombinant BACE2 (Homo sapiens (Human), UniProt Q9Y5Z0); assay: In vitro enzymatic BACE2 FRET assay; type: biochemical; details: read-out: BACE2 Enzyme IC50
# Cathepsin D (CatD) = Cathepsin D (CatD) (Homo sapiens (Human), UniProt P07339); assay: In vitro enzymatic Cathepsin D (CatD) FRET assay; type: biochemical; details: read-out: Cat D Enzyme IC50
# Chain of Cathepsin D (CatD) (P07339 65-412, species assumed): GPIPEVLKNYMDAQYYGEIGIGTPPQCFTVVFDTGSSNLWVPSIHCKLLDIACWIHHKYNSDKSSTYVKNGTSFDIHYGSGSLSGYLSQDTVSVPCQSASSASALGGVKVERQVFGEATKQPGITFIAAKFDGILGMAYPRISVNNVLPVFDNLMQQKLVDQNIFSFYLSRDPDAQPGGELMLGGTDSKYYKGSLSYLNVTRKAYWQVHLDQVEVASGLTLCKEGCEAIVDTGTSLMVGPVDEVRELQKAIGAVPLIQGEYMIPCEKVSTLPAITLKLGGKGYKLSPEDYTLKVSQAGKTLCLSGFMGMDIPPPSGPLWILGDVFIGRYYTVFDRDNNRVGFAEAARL
# Chain of human recombinant BACE2 (Q9Y5Z0 63-518): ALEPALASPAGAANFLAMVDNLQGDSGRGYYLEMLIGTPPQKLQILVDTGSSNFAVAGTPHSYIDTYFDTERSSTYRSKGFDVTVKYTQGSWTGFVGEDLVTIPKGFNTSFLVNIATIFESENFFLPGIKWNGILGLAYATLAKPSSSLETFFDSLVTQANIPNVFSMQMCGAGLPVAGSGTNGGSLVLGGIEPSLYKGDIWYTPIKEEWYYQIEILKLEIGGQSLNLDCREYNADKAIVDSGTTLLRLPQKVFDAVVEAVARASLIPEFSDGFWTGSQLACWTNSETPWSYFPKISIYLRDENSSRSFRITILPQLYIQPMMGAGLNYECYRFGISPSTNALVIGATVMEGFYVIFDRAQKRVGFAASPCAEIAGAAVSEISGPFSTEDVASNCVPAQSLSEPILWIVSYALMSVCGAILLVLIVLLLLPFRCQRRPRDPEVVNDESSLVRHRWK
structure (smiles),measurement,setting,value
"Cc1nc(COc2cnc(/C(F)=C/c3cc(F)c(F)c([C@]4(C)CS(=O)(=O)N(C)C(N)=N4)c3)cn2)no1 [Example 229, (R,Z)-3-amino-5-(2,3-difluoro-5-(2-fluoro-2-(5-((5-methyl-1,2,4-oxadiazol-3-yl)methoxy)pyrazin-2-yl)vinyl)phenyl)-2,5-dimethyl-5,6-dihydro-2H-1,2,4-thiadiazine 1,1-dioxide]",IC50,human recombinant BACE2,0.257 µM
same,IC50,Cathepsin D (CatD),68.2 µM
"CC1(C)C(N)=N[C@](C)(c2cc(/C=C(\F)c3cnc(OCC4CC4)cn3)ccc2F)CS1(=O)=O [Example 206, (R,Z)-5-amino-3-(5-(2-(5-(cyclopropylmethoxy)pyrazin-2-yl)-2-fluorovinyl)-2-fluorophenyl)-3,6,6-trimethyl-3,6-dihydro-2H-1,4-thiazine 1,1-dioxide]",IC50,human recombinant BACE2,0.139 µM
same,IC50,Cathepsin D (CatD),74.7 µM
"CC#CCOc1cnc(/C(F)=C/c2cc(F)c(F)c([C@]3(C)CS(=O)(=O)N(C)C(N)=N3)c2)cn1 [Example 165, (R,Z)-3-amino-5-(5-(2-(5-(but-2-yn-1-yloxy)pyrazin-2-yl)-2-fluorovinyl)-2,3-difluorophenyl)-2,5-dimethyl-5,6-dihydro-2H-1,2,4-thiadiazine 1,1-dioxide]",IC50,human recombinant BACE2,0.047 µM
same,IC50,Cathepsin D (CatD),18.2 µM
"CN1C(N)=N[C@](C)(c2cc(/C=C(\F)c3cnc(OCc4cscn4)cn3)cc(F)c2F)CS1(=O)=O [Example 220, (R,Z)-3-amino-5-(2,3-difluoro-5-(2-fluoro-2-(5-(thiazol-4-ylmethoxy)pyrazin-2-yl)vinyl)phenyl)-2,5-dimethyl-5,6-dihydro-2H-1,2,4-thiadiazine 1,1-dioxide]",IC50,human recombinant BACE2,0.066 µM
same,IC50,Cathepsin D (CatD),32.2 µM
"Cc1nnc(COc2cnc(/C(F)=C/c3cc(F)c(F)c([C@]4(C)CS(=O)(=O)N(C)C(N)=N4)c3)cn2)o1 [Example 233, (R,Z)-3-amino-5-(2,3-difluoro-5-(2-fluoro-2-(5-((5-methyl-1,3,4-oxadiazol-2-yl)methoxy)pyrazin-2-yl)vinyl)phenyl)-2,5-dimethyl-5,6-dihydro-2H-1,2,4-thiadiazine 1,1-dioxide]",IC50,human recombinant BACE2,0.621 µM
same,IC50,Cathepsin D (CatD),51.7 µM
"Cc1noc(COc2cnc(/C(F)=C/c3cc(F)c(F)c([C@]4(C)CS(=O)(=O)N(C)C(N)=N4)c3)cn2)n1 [Example 224, (R,Z)-3-amino-5-(2,3-difluoro-5-(2-fluoro-2-(5-((3-methyl-1,2,4-oxadiazol-5-yl)methoxy)pyrazin-2-yl)vinyl)phenyl)-2,5-dimethyl-5,6-dihydro-2H-1,2,4-thiadiazine 1,1-dioxide]",IC50,human recombinant BACE2,0.421 µM
same,IC50,Cathepsin D (CatD),74.8 µM
"Cc1csc(COc2cnc(/C(F)=C/c3cc(F)c(F)c([C@]4(C)CS(=O)(=O)N(C)C(N)=N4)c3)cn2)n1 [Example 237, (R,Z)-3-amino-5-(2,3-difluoro-5-(2-fluoro-2-(5-((4-methylthiazol-2-yl)methoxy)pyrazin-2-yl)vinyl)phenyl)-2,5-dimethyl-5,6-dihydro-2H-1,2,4-thiadiazine 1,1-dioxide]",IC50,human recombinant BACE2,0.103 µM
same,IC50,Cathepsin D (CatD),25.4 µM
"CN1C(N)=N[C@](C)(c2cc(/C=C(\F)c3cnc(OCc4nccn4C)cn3)cc(F)c2F)CS1(=O)=O [Example 249, (R,Z)-3-amino-5-(2,3-difluoro-5-(2-fluoro-2-(5-((1-methyl-1H-imidazol-2-yl)methoxy)pyrazin-2-yl)vinyl)phenyl)-2,5-dimethyl-5,6-dihydro-2H-1,2,4-thiadiazine 1,1-dioxide]",IC50,human recombinant BACE2,1.81 µM
same,IC50,Cathepsin D (CatD),> 400 µM
"CCOC(=O)COc1cnc(/C(F)=C/c2cc(F)c(F)c([C@]3(C)CS(=O)(=O)N(C)C(N)=N3)c2)cn1 [Example 243, (R,Z)-ethyl 2-((5-(2-(3-(3-amino-2,5-dimethyl-1,1-dioxido-5,6-dihydro-2H-1,2,4-thiadiazin-5-yl)-4,5-difluorophenyl)-1-fluorovinyl)pyrazin-2-yl)oxy)acetate]",IC50,human recombinant BACE2,0.398 µM
same,IC50,Cathepsin D (CatD),90.3 µM
"Cc1cnc(COc2cnc(/C(F)=C/c3cc(F)c(F)c([C@]4(C)CS(=O)(=O)N(C)C(N)=N4)c3)cn2)o1 [Example 246, (R,Z)-3-amino-5-(2,3-difluoro-5-(2-fluoro-2-(5-((5-methyloxazol-2-yl)methoxy)pyrazin-2-yl)vinyl)phenyl)-2,5-dimethyl-5,6-dihydro-2H-1,2,4-thiadiazine 1,1-dioxide]",IC50,human recombinant BACE2,0.111 µM
same,IC50,Cathepsin D (CatD),34.9 µM
"CN1C(N)=N[C@](C)(c2cc(/C=C(\F)c3cnc(OCc4ncccn4)cn3)cc(F)c2F)CS1(=O)=O [Example 228, (R,Z)-3-amino-5-(2,3-difluoro-5-(2-fluoro-2-(5-(pyrimidin-2-ylmethoxy)pyrazin-2-yl)vinyl)phenyl)-2,5-dimethyl-5,6-dihydro-2H-1,2,4-thiadiazine 1,1-dioxide]",IC50,human recombinant BACE2,0.266 µM
same,IC50,Cathepsin D (CatD),39.5 µM
"CC1(C)C(N)=N[C@](C)(c2cc(/C=C(\F)c3cnc(Cl)cn3)ccc2F)CS1(=O)=O [Example 159, (R,Z)-5-amino-3-(5-(2-(5-chloropyrazin-2-yl)-2-fluorovinyl)-2-fluorophenyl)-3,6,6-trimethyl-3,6-dihydro-2H-1,4-thiazine 1,1-dioxide]",IC50,human recombinant BACE2,0.003 µM
same,IC50,Cathepsin D (CatD),143 µM
"Cc1cc(COc2cnc(/C(F)=C/c3cc(F)c(F)c([C@]4(C)CS(=O)(=O)N(C)C(N)=N4)c3)cn2)no1 [Example 223, (R,Z)-3-amino-5-(2,3-difluoro-5-(2-fluoro-2-(5-((5-methylisoxazol-3-yl)methoxy)pyrazin-2-yl)vinyl)phenyl)-2,5-dimethyl-5,6-dihydro-2H-1,2,4-thiadiazine 1,1-dioxide]",IC50,human recombinant BACE2,0.21 µM
same,IC50,Cathepsin D (CatD),22.3 µM
"CN1C(N)=N[C@](C)(c2cc(/C=C(\F)c3cc4nccnc4cn3)ccc2F)CS1(=O)=O [Example 250, (5R)-5-(2-fluoro-5-((Z)-2-fluoro-2-(pyrido[3,4-b]pyrazin-7-yl)ethenyl)phenyl)-2,5-dimethyl-5,6-dihydro-2H-1,2,4-thiadiazin-3-amine 1,1-dioxide]",IC50,Cathepsin D (CatD),> 400 µM
"Cc1nc(COc2cnc(/C(F)=C/c3cc(F)c(F)c([C@]4(C)CS(=O)(=O)N(C)C(N)=N4)c3)cn2)c(C)o1 [Example 238, (R,Z)-3-amino-5-(5-(2-(5-((2,5-dimethyloxazol-4-yl)methoxy)pyrazin-2-yl)-2-fluorovinyl)-2,3-difluorophenyl)-2,5-dimethyl-5,6-dihydro-2H-1,2,4-thiadiazine 1,1-dioxide]",IC50,human recombinant BACE2,0.094 µM
same,IC50,Cathepsin D (CatD),46.8 µM
"CC#CCOc1cnc(/C(F)=C/c2ccc(F)c([C@]3(C)CS(=O)(=O)N(C)C(N)=N3)c2)cn1 [Example 168, (R,Z)-3-amino-5-(5-(2-(5-(but-2-yn-1-yloxy)pyrazin-2-yl)-2-fluorovinyl)-2-fluorophenyl)-2,5-dimethyl-5,6-dihydro-2H-1,2,4-thiadiazine 1,1-dioxide]",IC50,human recombinant BACE2,0.01 µM
same,IC50,Cathepsin D (CatD),25.4 µM
"CN1C(N)=N[C@](C)(c2cc(/C=C(\F)c3cnc(C#N)cn3)ccc2F)C(C)(C)S1(=O)=O [Example 181, (R,Z)-5-(2-(3-(3-amino-2,5,6,6-tetramethyl-1,1-dioxido-5,6-dihydro-2H-1,2,4-thiadiazin-5-yl)-4-fluorophenyl)-1-fluorovinyl)pyrazine-2-carbonitrile]",IC50,human recombinant BACE2,0.087 µM
same,IC50,Cathepsin D (CatD),178 µM
"CN1C(N)=N[C@](C)(c2cc(/C=C(\F)c3cnc(OCc4cocn4)cn3)cc(F)c2F)CS1(=O)=O [Example 225, (R,Z)-3-amino-5-(2,3-difluoro-5-(2-fluoro-2-(5-(oxazol-4-ylmethoxy)pyrazin-2-yl)vinyl)phenyl)-2,5-dimethyl-5,6-dihydro-2H-1,2,4-thiadiazine 1,1-dioxide]",IC50,human recombinant BACE2,0.084 µM
same,IC50,Cathepsin D (CatD),69.8 µM
